Tested on: modified version of the GPR119 receptor (94% identity to human receptor) stably expressed in HEK-293 cells
Experiment: cAMP Production Assay (LANCE cAMP kit, TR-FRET)
Format: cell-based
Conditions: for cAMP production in HEK-293 cells: HEK-293 cells expressing modified GPR119, test compounds 0.2 nM to 10 μM, one-hour incubation at ambient temperature; for Fold over baseline: increase in cAMP relative to basal levels, 1.5-fold or greater = agonist activity
Experimental: The assay utilized HEK-293 cells that stably express a modified version of the GPR119 receptor (94% identity to human receptor), under the control of a CMV promoter containing a tet-on element for tetracycline-inducible expression. GPR119 agonist-induced cyclic AMP (cAMP) production was measured in this cell line using the LANCE cAMP kit (Perkin Elmer, Waltham, Mass.). To generate a working stock of cells for the assay, cells were treated overnight with 1 μg/mL doxycycline at 37° C. in the presence of 5% CO2 to induce receptor expression. Cells were then harvested by enzymatic dissociation with 0.05% trypsin, resuspended in freezing medium (DMEM growth medium with 10% each of fetal bovine serum and DMSO), aliquoted and frozen at −80° C. On the day of the assay, frozen cells were thawed, washed 1× in PBS and resuspended in Hank's buffered salt solution (HBSS) containing 5 mM HEPES, 0.1% BSA and Alexa Fluor 647-conjugated anti-cAMP antibody (diluted 1:100). The cell suspension was then transferred to a Proxiplate Plus white 384-well assay plate (Perkin-Elmer) at 2000 cells/well. Test compounds at final concentrations ranging from 0.2 nM to 10 μM were added to the assay plate, followed by a one-hour incubation at ambient temperature (volume=10 μL/well). DMSO concentration was held constant at 0.5%. After incubation with test compounds, 10 μL of a detergent buffer containing a biotinylated cAMP/Europium-conjugated streptavidin complex (Europium-labeled cAMP tracer) were added to each well on the assay plate, followed by a 2-hour incubation at ambient temperature. During this incubation cAMP released from lysed cells competes with the Europium-labeled cAMP tracer for binding to the Alexa Fluor 647-conjugated antibody. […] Cellular cAMP levels were then determined by interpolation of raw signal data using a cAMP standard curve. Compounds were determined to have agonist activity if they stimulated a 1.5-fold or greater increase in cAMP relative to basal levels.

Compound	cAMP production in HEK-293 cells [nmol]	Fold over baseline
CS(=O)(=O)c1ccc(N[C@H]2CCN(C3CCN(c4noc(C5CCC5)n4)CC3)C2=O)c(F)c1 [Example 40, (S)-1-(1-(5-cyclobutyl-1,2,4-oxadiazol-3-yl)piperidin-4-yl)-3-(2-fluoro-4-(methylsulfonyl)-phenylamino)pyrrolidin-2-one]	17.5	5.7
CS(=O)(=O)c1cc(F)c(N[C@H]2CCCN(C3CCN(c4nc(C(F)(F)F)no4)CC3)C2=O)c(F)c1 [Example 10, (S)-3-(2,6-difluoro-4-(methylsulfonyl)phenylamino)-1′-(3-trifluoromethyl-1,2,4-oxadiazol-5-yl)-1,4′-bipiperidin-2-one]	8.3	2.9
CS(=O)(=O)c1ccc(N[C@H]2CCN(C3CCN(c4noc(-c5ccccc5)n4)CC3)C2=O)c(F)c1 [Example 44, (S)-3-(2-fluoro-4-(methylsulfonyl)-phenylamino)-1-(1-(5-phenyl-1,2,4-oxadiazol-3-yl)piperidin-4-yl)pyrrolidin-2-one]	19.5	6.8
CC(C)c1noc(N2CCC(N3CCC[C@H](Nc4ccc(S(C)(=O)=O)cc4F)C3=O)CC2)n1 [Example 7, (S)-3-(2-fluoro-4-(methylsulfonyl)phenylamino)-1′-(3-isopropyl-1,2,4-oxadiazol-5-yl)-1,4′-bipiperidin-2-one]	27.8	5.7
CS(=O)(=O)c1cc(F)c(O[C@H]2CCN(C3CCN(c4noc(C(F)(F)F)n4)CC3)C2=O)cc1F [Example 27, (S)-3-(2,5-difluoro-4-(methylsulfonyl)phenoxy)-1-(1-(5-(trifluoromethyl)-1,2,4-oxadiazol-3-yl)piperidin-4-yl)pyrrolidin-2-one]	98.9	5.1
CC[C@H](C)c1nc(N2CCC(N3CC[C@H](Nc4ccc(S(C)(=O)=O)cc4F)C3=O)CC2)no1 [Example 41, (S)-1-(1-(5-sec-butyl-1,2,4-oxadiazol-3-yl)piperidin-4-yl)-3-(2-fluoro-4-(methylsulfonyl)phenylamino)-pyrrolidin-2-one]	15.9	4.0
CCc1noc(N2CCC(N3CC[C@H](Oc4ccc(S(C)(=O)=O)cc4F)C3=O)CC2)n1 [Example 6, (S)-1-(1-(3-ethyl-1,2,4-oxadiazol-5-yl)piperidin-4-yl)-3-(2-fluoro-4-(methylsulfonyl)phenoxy)pyrrolidin-2-one]	22.5	4.9
CC(F)(F)c1nc(N2CCC(N3CCC[C@H](Nc4cc(F)c(S(C)(=O)=O)cc4F)C3=O)CC2)no1 [Example 48, (S)-3-(2,5-difluoro-4-(methylsulfonyl)phenylamino)-1′-(5-(1,1-difluoroethyl)-1,2,4-oxadiazol-3-yl)-1,4′-bipiperidin-2-one]	8.4	2.3
CC(F)(F)c1nc(N2CCC(N3CCC[C@H](Nc4c(F)cc(S(C)(=O)=O)cc4F)C3=O)CC2)no1 [Example 50, (S)-3-(2,6-difluoro-4-(methylsulfonyl)phenylamino)-1′-(5-(1,1-difluoroethyl)-1,2,4-oxadiazol-3-yl)-1,4′-bipiperidin-2-one]	3.9	1.7
CC(C)(F)c1nc(N2CCC(N3CC[C@H](Nc4ccc(S(C)(=O)=O)cc4F)C3=O)CC2)no1 [Example 42, (S)-3-(2-fluoro-4-(methylsulfonyl)-phenylamino)-1-(1-(5-(2-fluoropropan-2-yl)-1,2,4-oxadiazol-3-yl)piperidin-4-yl)pyrrolidin-2-one]	12.5	5.1
CC(C)c1noc(N2CCC(N3CC[C@H](Oc4cc(F)c(S(C)(=O)=O)cc4F)C3=O)CC2)n1 [Example 1, (S)-3-(2,5-difluoro-4-(methylsulfonyl)phenoxy)-1-(1-(3-isopropyl-1,2,4-oxadiazol-5-yl)piperidin-4-yl)pyrrolidin-2-one]	25.0	4.6
CC(C)c1noc(N2CCC(N3CC[C@H](Oc4ccc(S(C)(=O)=O)cc4F)C3=O)CC2)n1 [Example 2, (S)-3-(2-fluoro-4-(methylsulfonyl)phenoxy)-1-(1-(3-isopropyl-1,2,4-oxadiazol-5-yl)piperidin-4-yl)pyrrolidin-2-one]	27.4	5.6
CCS(=O)(=O)c1ccc(N[C@H]2CCN(C3CCN(c4noc(C(F)(F)F)n4)CC3)C2=O)c(F)c1 [Example 34, (S)-3-(4-(ethylsulfonyl)-2-fluorophenylamino)-1-(1-(5-(trifluoromethyl)-1,2,4-oxadiazol-3-yl)piperidin-4-yl)pyrrolidin-2-one]	7.3	2.8
CS(=O)(=O)c1ccc(N[C@H]2CCN(C3CCN(c4noc(C5CC5)n4)CC3)C2=O)c(F)c1 [Example 45, (S)-1-(1-(5-cyclopropyl-1,2,4-oxadiazol-3-yl)piperidin-4-yl)-3-(2-fluoro-4-(methylsulfonyl)-phenylamino)-pyrrolidin-2-one]	13.3	5.3
CS(=O)(=O)c1ccc(N[C@H]2CCN(C3CCN(c4noc(CC(F)(F)F)n4)CC3)C2=O)c(F)c1 [Example 36, (S)-3-(2-fluoro-4-(methylsulfonyl)phenylamino)-1-(1-(5-(2,2,2-trifluoroethyl)-1,2,4-oxadiazol-3-yl)piperidin-4-yl)pyrrolidin-2-one]	9.9	4.3
CS(=O)(=O)c1cc(F)c(N[C@H]2CCN(C3CCN(c4nc(C(F)(F)F)no4)CC3)C2=O)cc1F [Example 59, (S)-3-((2,5-difluoro-4-(methylsulfonyl)phenyl)amino)-1-(1-(3-(trifluoromethyl)-1,2,4-oxadiazol-5-yl)piperidin-4-yl)pyrrolidin-2-one]	25.7	3.9
CS(=O)(=O)c1ccc(N[C@H]2CCN(C3CCN(c4noc(C5(C(F)(F)F)CC5)n4)CC3)C2=O)c(F)c1 [Example 46, (S)-3-(2-fluoro-4-(methylsulfonyl)-phenylamino)-1-(1-(5-(1-(trifluoromethyl)-cyclopropyl)-1,2,4-oxadiazol-3-yl)piperidin-4-yl)pyrrolidin-2-one]	8.2	2.7
CC(F)(F)c1nc(N2CCC(N3CC[C@H](Nc4ccc(S(C)(=O)=O)cc4F)C3=O)CC2)no1 [Example 49, (S)-1-(1-(5-(1,1-difluoroethyl)-1,2,4-oxadiazol-3-yl)piperidin-4-yl)-3-(2-fluoro-4-(methylsulfonyl)phenylamino)pyrrolidin-2-one]	20.8	2.7
CS(=O)(=O)c1cc(F)c(O[C@H]2CCCN(C3CCN(c4noc(C(F)(F)F)n4)CC3)C2=O)cc1F [Example 54, (S)-3-(2,5-difluoro-4-(methylsulfonyl)phenoxy)-1′-(5-(trifluoromethyl)-1,2,4-oxadiazol-3-yl)-[1,4′-bipiperidin]-2-one]	19.9	4.9
CCCc1nc(N2CCC(N3CC[C@H](Nc4ccc(S(C)(=O)=O)cc4F)C3=O)CC2)no1 [Example 37]	12.2	3.7
CS(=O)(=O)c1cc(F)c(N[C@H]2CCCN(C3CCN(c4noc(C(F)(F)F)n4)CC3)C2=O)cc1F [Example 25, (S)-3-(2,5-difluoro-4-(methylsulfonyl)phenylamino)-1′-(5-(trifluoromethyl)-1,2,4-oxadiazol-3-yl)-1,4′-bipiperidin-2-one]	49.0	2.9
CS(=O)(=O)c1cc(F)c(N[C@H]2CCN(C3CCN(c4noc(C(F)F)n4)CC3)C2=O)cc1F [Example 30, (S)-3-(2,5-difluoro-4-(methylsulfonyl)phenylamino)-1-(1-(5-(difluoromethyl)-1,2,4-oxadiazol-3-yl)piperidin-4-yl)pyrrolidin-2-one]	7.5	3.1
CS(=O)(=O)c1ccc(N[C@H]2CCCN(C3CCN(c4noc(C(F)(F)F)n4)CC3)C2=O)c(F)c1 [Example 29, (S)-3-(2-fluoro-4-(methylsulfonyl)phenylamino)-1′-(5-(trifluoromethyl)-1,2,4-oxadiazol-3-yl)-1,4′-bipiperidin-2-one]	47.6	3.0
